The test system of one experiment is Nrl-GFP MEFs. In words: Chemical reprogramming of Nrl-GFP MEFs to photoreceptor like cells (Nrl-GFP reporter). It is filed as cell-based, mouse. Conditions: for effect on reprogramming of removing the small molecule from the cocktail: small molecule subtracted from cocktail.
The test system of another experiment is mitochondrial ROS. Nature of the experiment: Measurement of mitochondrial ROS (MitoSox staining, fluorometry). The format is cell-based, mouse. An excerpt: Mitochondrial ROS activates NF-kB which controls CiPPC reprogramming by retrograde signaling. Next the inventors investigated the reasons behind NFkβ activation. Known inducers of NF-kB are highly variable including TNFα, LPS, Ionizing radiation and mitochondrial ROS (Formentini et al., Mol Cell 45:731-42, 2012; Andreakos et al., Blood 103:2229-37, 2004). […] So the inventors contemplated that mitochondrial ROS generated by small molecule treatment may activate NF-kB. […] The inventors found increased accumulation of mitochondrial ROS indicator mitosox during reprogramming starting from d5 compared to control MEFs (FIG. 6A, FIG. 6B and FIG. 6C). To measure the importance of mROS during chemical reprogramming, conversion experiments were performed in the presence of mitochondrial ROS scavenger, mitotempo.
Measurement of mitochondrial ROS. Mitochondrial ROS was detected and quantified. […] Cells were then washed twice with PBS and fluorescence has been monitored with a microplate reader set to 510 nm excitation (Ex bandwidth: 10 nm) and 595 nm emission (Em bandwidth 35 nm) wavelengths. mROS generation was also micrographed by Leica fluorescence microscope an quantified in Leica Application Suite X Software. […] Average intensity within each ROI was measured and exported to Excel data sheet. Average change in fluorescence was calculated for each type of cells. […]

For a further experiment, the system named is HepG2 cells. Conditions: treated for several days; cited from earlier work.
A further experiment relates to HFL1-Nrl-DsRed cells. In words: Chemical reprogramming of human HFL1-Nrl-DsRed fibroblasts to photoreceptor like cells. Conditions: added during reprogramming. The format is cell-based. An excerpt:
Identification of small molecules for derivation of photoreceptor-like cells (CiPPC). To identify small molecules responsible for retinal neuron specific fate, the inventors followed previous studies describing a set of small molecules that can convert fibroblasts into neurons (Hu et al., Cell stem cell 17:204-12, 2015; Zhang et al., Cell stem cell 17:735-47, 2015; Fu et al., Cell research 25, 2015; Cheng et al., Cell research 25:1269-72, 2015). Four out of six small molecules described in these studies, Valproic acid (V), CHIR(C), Repsox (R) and Forskolin(F), are able to convert fibroblast cells into mixed progenitor stage (Fu et al., Cell research 25, 2015). The inventors have exploited this phenomenon to find out additional small molecules those might be important for the determination of retinal neuron specific fate. An array of small molecule along with different medium compositions and time points has been tested as possible candidates. Mouse Embryonic Fibroblasts (MEFs) from a photoreceptor specific reporter mouse (Nrl-GFP) are used as starting cells for the reprogramming studies (Akimoto et al., PNAS 103:3890-95, 2006). If converted to photoreceptors, these MEFs would have GFP expression from the Nrl promoter. […] This conversion requires three additional factors Sonic Hedgehog (S), Taurine (T) and Retinoic acid (R) introduced on day 8 (d8) (FIG. 1A and FIG. 1B). Human fibroblasts (HFL1, ATCC CCL153) can also be converted into photoreceptor like cells by these small molecules. The inventors first generated a HFL-1 cell line having a lentivirally transduced DsRed reporter downstream of Nrl promoter. Drug selected HFL1-Nrl-DsRed cells were used for the reprogramming by the previously described mouse specific protocol with some modifications (FIG. 1C). Round shaped and neuron like Nrl promoter driven DsRed positive cells were evident starting from d6 to d8 (FIG. 1D). […]
All small molecules diluted in DMSO according to manufacturer's instruction. […] Cells were fixed or analyzed on day 7.

“Also recorded” adds a separate entry of the source.

Source text for Nrl-GFP MEFs: Identification of small molecules for derivation of photoreceptor-like cells (CiPPC). […] The inventors have exploited this phenomenon to find out additional small molecules those might be important for the determination of retinal neuron specific fate. An array of small molecule along with different medium compositions and time points has been tested as possible candidates. Mouse Embryonic Fibroblasts (MEFs) from a photoreceptor specific reporter mouse (Nrl-GFP) are used as starting cells for the reprogramming studies (Akimoto et al., PNAS 103:3890-95, 2006). If converted to photoreceptors, these MEFs would have GFP expression from the Nrl promoter. […] This conversion requires three additional factors Sonic Hedgehog (S), Taurine (T) and Retinoic acid (R) introduced on day 8 (d8) (FIG. 1A and FIG. 1B). […] The inventors have tested the importance of each small molecule in the reprogramming process by using Nrl-GFP MEFs as starting cells.
All small molecules diluted in DMSO according to manufacturer's instruction. On day 0 about 35000 MEFs were seeded in each well of a 24 well plate (0.1% gelatin coated for O/N). At day 1 change the medium with photoreceptor induction medium (PIM) with V (0.5 mM), C (4.8 μM), R (2 μM) F (10 βM). On day 3 change the medium (PIM) with V, C, R, F plus IWR1 (I, 10 βM). Change the medium (PIM) with VCRFI on d5 and d6. On day 8 add Sonichedgehog (S, 3 nM), taurine molecules and factors. Finally on day 11 cells with GFP expression were observed. For the differentiation replace the medium with photoreceptor differentiation medium (PDM) and keep them up to d15 to d16. […] Cells were fixed or analyzed on day 7.

Take `Cc1cnc(-c2cnc(NCCNc3ccc(C#N)cn3)nc2-c2ccc(Cl)cc2Cl)[nH]1` [CHIR, 6-[2-[[4-(2,4-dichlorophenyl)-5-(5-methyl-1H-imidazol-2-yl)pyrimidin-2-yl]amino]ethylamino]-pyridine-3-carbonitrile]: the “effect on reprogramming of removing the small molecule from the cocktail” value (“effect on reprogramming” below) with Nrl-GFP MEFs was “worst effect on reprogramming process”.
Turning to `O=C(Nc1cccc2cccnc12)c1ccc(N2C(=O)[C@@H]3[C@H](C2=O)[C@@H]2C=C[C@H]3C2)cc1` [IWR1, N-(Quinolin-8-yl)-4-(exo-4-aza-3,5-dioxotricyclo[5.2.1.02,6]oct-8-en-4-yl)benzamide], the “conversion of GFP negative MEFs into GFP+ photoreceptor like cells” value in the experiment with Nrl-GFP MEFs (in presence of VCRF, d10 to d11, S, T, R introduced on d8) is reported as “can covert GFP negative MEFs into GFP^+ positive round shaped photoreceptor like cells”. Besides, the “effect on reprogramming” value in the experiment on Nrl-GFP MEFs is on record as “worst effect on reprogramming process; also recorded: reduced the reprogramming efficiency”. In addition, the “mROS generation in reprogramming without the small molecule” value with mitochondrial ROS (d8) was “did not show increase in mROS generation”.
As to `Cc1cccc(-c2n[nH]cc2-c2ccc3ncccc3n2)n1` [Repsox, 2-(3-(6-Methylpyridin-2-yl)-1H-pyrazol-4-yl)-1,5-naphthyridine], the “effect on reprogramming” value in the experiment with Nrl-GFP MEFs is on record as “worst effect on reprogramming process”.
`Oc1nc(-c2ccc(C(F)(F)F)cc2)nc2c1CSCC2` [XAV939]: the axin stabilization entry in the experiment with HepG2 cells is on record as “can also stabilize the axin at cytosol”.
For the molecule `CC1(C)CC(NC(=O)C[P+](c2ccccc2)(c2ccccc2)c2ccccc2)CC(C)(C)N1[O]` [mitotempo], in the experiment on Nrl-GFP MEFs (conversion in presence of mROS scavenger, printed as 'significantly decreased yield ... (20%)'), the “yield of reprogrammed cells” value came to 20%. Besides, the “number of Nrl-GFP+ reprogrammed cells at different concentrations” value in the experiment on Nrl-GFP MEFs (data not shown) was “dose dependent relationship”. In the experiment with mitochondrial ROS (mitoSox staining, fluorometric analysis), the “mROS generation upon scavenger treatment” value is listed as “decrease of mROS generation”.

B1: GDNF: factor added during human cell reprogramming (protein, UniProt P39905 78-211, looked up)
Glial cell line-derived …: SPDKQMAVLPRRERNRQAAAANPENSRGKGRRGQRGKNRGCVLTAIHLNVTDLGLGYETKEELIFRYCSGSCDAAETTYDKILKNLSRNRRLVSDKVGQACCRPIAFDDDLSFLDDNLVYHILRKHSAKRCGCI
For the molecule B1, the “morphology of converted human photoreceptor like cells” value (“morphology” for short) in the experiment on HFL1-Nrl-DsRed cells was “helped these converted human photoreceptor like cells to have a healthy morphology”.

B2: NT3: factor added during human cell reprogramming (protein, UniProt P20783 139-257, looked up)
Neurotrophin-3: YAEHKSHRGEYSVCDSESLWVTDKSSAIDIRGHQVTVLGEIKTGNSPVKQYFYETRCKEARPVKNGCRGIDDKHWNSQCKTSQTYVRALTSENNKLVGWRWIRIDTSCVCALSRKIGRT
modifications: Neurotrophin-3
notes: factor added during human cell reprogramming
For B2, the “morphology” value in the experiment on HFL1-Nrl-DsRed cells is listed as “helped these converted human photoreceptor like cells to have a healthy morphology”.

B3: BDNF: factor added during human cell reprogramming (protein, UniProt P23560 129-247, looked up)
Neurotrophic factor BDNF: HSDPARRGELSVCDSISEWVTAADKKTAVDMSGGTVTVLEKVPVSKGQLKQYFYETKCNPMGYTKEGCRGIDKRHWNSQCRTTQSYVRALTMDSKKRIGWRFIRIDTSCVCTLTIKRGR
modifications: Neurotrophic factor BDNF
notes: as for B2
On to B3, for which the “morphology” value with HFL1-Nrl-DsRed cells was “helped these converted human photoreceptor like cells to have a healthy morphology”.

The record behind these values is patent publication US20210139844A1, “REPROGRAMMING FIBROBLASTS TO RETINAL CELLS” (UNIVERSITY OF NORTH TEXAS HEALTH SCIENCE CENTER, priority 2017, published 2021).
